Entries after “also recorded” stand apart in the source; their conditions may differ. Bridge positions count the residues as written; N and C are the ends. Square brackets hold non-standard residues; d marks the D form. Ends that are not written are not given here. 1Nal = N[C@@H](Cc1cccc2ccccc12)C(=O)O; Sar = CNCC(=O)O
Test system: patients with anti-EPO antibody-mediated PRCA
Assay: Open-label clinical study in patients with anti-EPO antibody-mediated PRCA
Format: in vivo, human
Procedure: An open-label, prospective, non-randomized study was conducted to investigate the ability of Peptide I to correct anemia in patients with PRCA that is characterized by anti-EPO antibodies. The pre-specified primary objective was to determine if Peptide I could increase and maintain hemoglobin levels above 11 g/dL (consistent with both U.S.[KDOQI Clinical Practice Guidelines and Clinical Practice Recommendations for Anemia in Chronic Kidney Disease (2006) Am. J. Kidney Dis. 47 (Suppl 3):S11-S145.] and European Guidelines [Locatelli F, et al. (2004) Nephrol. Dial. Transplant 19 (Suppl 2): ii1-47.]) without the need for red cell transfusions in patients with anti-EPO antibody-mediated PRCA during 6 months of treatment. The effect of Peptide I on reducing red cell transfusions, the time required to correct anemia in the absence of transfusions, dose requirements, and safety were also assessed.
Patients older than 18 years of age were eligible for inclusion if they had CKD (with or without the need for dialysis) and PRCA or red cell hypoplasia due to anti-EPO antibodies. Patients were required to have a documented history of: (1) a decrease in hemoglobin concentration while receiving a stable or increased dose of a protein-based ESA, or red cell transfusion dependency; (2) reticulocyte counts of <30×10^9/L; (3) a bone marrow examination showing severe erythroid hypoplasia or aplasia; and (4) a confirmed positive test for anti-EPO antibodies. Patients may have received immunosuppressive therapy previously, but these medications were to be discontinued for at least three months prior to enrollment. At the time of enrollment, patients had to either be transfusion-dependent, or have a hemoglobin concentration persistently below 11 g/dL without ESA therapy. The presence of another hematological disorder, another known cause of PRCA, and current treatment with ESA or immunosuppressive therapy represented the major exclusion criteria.
Blood samples were taken for baseline measurement of the complete blood count, reticulocyte count, urea, electrolytes, liver function tests, iron status, anti-EPO antibodies, and anti-Peptide I antibodies. Upon meeting study eligibility criteria, treatment with Peptide I was initiated at a dose of 0.05 mg/kg by SC injection Q4W. Hemoglobin and reticulocyte counts were performed weekly, while samples were taken monthly for other safety laboratory parameters including urea, electrolytes, liver function tests and anti-EPO and anti-Peptide I antibodies. The frequency and dose of each injection was adjusted based on the patient's hemoglobin response to achieve a hemoglobin level in the target range of 11-13 g/dL. This target was subsequently changed to 11-12 g/dL in early 2007 following publication of the CREATE [Drueke T B, et al. (2006) N. Engl. J. Med. 355: 2071-84] and CHOIR [Singh A K, et al. (2006) N. Engl. J. Med 355: 2085-98] studies, in line with subsequent KDOQI recommendations [KDOQI Clinical Practice Guideline and Clinical Practice Recommendations for Anemia in Chronic Kidney Disease (2007) Am. J. Kidney Disease 50: 471-530].
The study was designed to enroll 5-20 patients with anti-EPO antibody mediated PRCA based on the Investigators' estimate of the maximum number of potentially eligible patients with access to the study centers. Patients were to be treated for an initial 6-month period. […] All patients who received at least one dose of Peptide I were included in the safety analysis, and those with at least one hemoglobin value following dosing were included in the efficacy analyses. All safety and efficacy results were summarized using descriptive statistics and data are presented as medians, 25th and 75th percentiles, and ranges.

## PEGylated homodimer of peptide monomers (AcG)GLYACHMGPIT(1-nal)VCQPLR(MeG)K (SEQ ID NO: 2), EPO-R agonist (Ac-GGLYACHMGPIT[1Nal]VCQPLR[Sar]K; disulfide 6-15 (inferred); not fully specified (residue 21); printed as (AcG)GLYACHMGPIT(1-nal)VCQPLR(MeG)K; also: PEGylated) [Peptide I]
10 patients, median follow up 13.5 months, SC Q4W
  patients with hemoglobin response (above 11 g/dL without transfusion): 10 patients
SC injections
  tolerability: generally well-tolerated
As of month 4
  patients receiving red blood cell transfusions: one
At data cut-off, baseline 1,356 μg/L
  median ferritin levels: 1,243 μg/L
At data cut-off, baseline 70.9%
  median TSAT: 50.0%
At month 6
  patients receiving red blood cell transfusions: no patient
By 6 months, baseline 9.7 g/dL
  median hemoglobin: 11.6 g/dL
During month 7 (prior to kidney transplant surgery)
  patients receiving red blood cell transfusions: one
During the first month
  patients receiving red blood cell transfusions: 3 patients
From month 8 onwards
  patients receiving red blood cell transfusions: no patient
human, in vivo
  median time to hemoglobin response: 10 weeks
  serious adverse events related to study drug: none of these events was considered related to study drug; also recorded: no reports of serious adverse events related to Peptide I
In 2 patients
  serious adverse events: Four
In 10 patients
  adverse events reported: 108 events
Of 108 events
  adverse events at least possibly related to Peptide I: 4 events
  adverse events mild or moderate in severity: 97 events

Reference: patent US20090209457A1, “TREATMENT OF ANTI-ERYTHROPOIETIN ANTIBODY-MEDIATED DISORDERS WITH SYNTHETIC PEPTIDE-BASED EPO RECEPTOR AGONISTS” (Affymax, Inc., priority 2008, published 2009)
